Data published in patent US8642516B2, “Chemically-defined arrays for screening cell-substrate interactions” (Wisconsin Alumni Research Foundation, priority 2012, dated 2014).

System: hMSC
Test: Alkaline phosphatase activity staining of hMSCs on SAM arrays
Type: cell-based, human
Conditions: high GRGDSP density SAM spots, 7 days
Excerpt: In this SAM array approach, each spot was designed to contain the same total molar density (mol/cm^2) of peptide from spot to spot. Therefore, control over individual peptide density was achieved by mixing scrambled BR-BP and HPG-BP and mutant GRGESP (SEQ ID NO:19) peptides with functional BR-BP, HPG-BP or GRGDSP (SEQ ID NO:18) peptides, respectively. Therefore, in a typical SAM array, SAMs were locally formed within spots using an alkanethiolate mixture of 95% HS—C11-EG3-OH and 5% HS—C11-EG6-COOH to create substrates with a total of 5% carboxylate groups for peptide conjugation. Here, “X %” refers to the mole percent of alkanethiolate present during SAM formation and subsequently the approximate amount of an alkanethiolate present on the surface after SAM formation. To regulate the density of active peptide present in each spot, mutant and scramble versions of peptides were included during peptide conjugation. […] As mentioned previously, peptide concentrations were easily measured using UV/Vis since all peptides either contained residues that absorbed strongly at 280 nm, or were engineered to contain tryptophan residues in the poly-glycine tail. […]

## GRGDSP
  staining for alkaline phosphatase activity: increased staining for alkaline phosphatase activity
